One experiment deals with 518A2. In words: Cytotoxicity against human 518A2 cells after 96 hrs by SRB assay. As to conditions: 518A2, 96 h. It counts as functional, cell-based. A general note: Sulforhodamine B stains cellular protein and so reports cell mass.
Another experiment deals with A2780. The experiment in a line: Cytotoxicity against human A2780 cells after 96 hrs by SRB assay. As to conditions: A2780, 96 h. The format is functional, cell-based.
The next experiment deals with MCF7. In words: Cytotoxicity against human MCF7 cells after 96 hrs by SRB assay. As to conditions: MCF7, 96 h. The format is functional, cell-based.
The next experiment has as its system A549. In words: Cytotoxicity against human A549 cells after 96 hrs by SRB assay. The format is functional, cell-based. As to conditions: A549, 96 h.
In another experiment the test system is NIH3T3. The experiment in a line: Cytotoxicity against mouse NIH/3T3 cells after 96 hrs by SRB assay. The format is cell-based. The settings on record: NIH3T3, 96 h.
The subject of a further experiment is HT-29. In words: cells. The settings on record: Homo sapiens, HT-29, 96 h.

The text below walks through data of ChEMBL document CHEMBL4130577, “Platanic acid: A new scaffold for the synthesis of cytotoxic agents” (Eur J Med Chem, 2018).

Description for HT-29: Cytotoxicity against human HT-29 cells after 96 hrs by SRB assay

As for `CC(=O)O[C@H]1CC[C@]2(C)[C@H]3CC[C@@H]4[C@H]5[C@H](C(C)=O)CC[C@]5(C(=O)O)CC[C@@]4(C)[C@]3(C)CC[C@H]2C1(C)C`, the half-maximal effective concentration (EC50) with 518A2, with A2780, in the experiment with MCF7, with A549, in the experiment on NIH3T3 and with HT-29 was > 30 µM each time.
As to `CC(=O)O[C@H]1CC[C@]2(C)[C@H]3CC[C@@H]4[C@H]5[C@H](C(C)=O)CC[C@]5(C(=O)NCCN)CC[C@@]4(C)[C@]3(C)CC[C@H]2C1(C)C`, the EC50 with 518A2 came to 3.2 µM; with A2780, 3.2 µM; with MCF7, 3.1 µM; in the experiment on A549 it was 3.2 µM; in the experiment on NIH3T3, 2.1 µM; in the experiment with HT-29, 3.3 µM.
Take `CC(=O)O[C@H]1CC[C@]2(C)[C@H]3CC[C@@H]4[C@H]5[C@H](C(C)=O)CC[C@]5(C(=O)NCCN(C)C)CC[C@@]4(C)[C@]3(C)CC[C@H]2C1(C)C`: the EC50 in the experiment on 518A2 was 3.7 µM; in the experiment on A2780, 3.8 µM; in the experiment on MCF7, 2.5 µM; with A549, 2.9 µM; in the experiment with NIH3T3 it was 1.4 µM; with HT-29, 4.5 µM.
`CC(=O)[C@@H]1CC[C@]2(C(=O)OCc3ccccc3)CC[C@]3(C)[C@H](CC[C@@H]4[C@@]5(C)CCC(=O)C(C)(C)[C@@H]5CC[C@]43C)[C@@H]12`: the half-maximal effective concentration (EC50) with 518A2, in the experiment on A2780, with MCF7, in the experiment with A549, in the experiment on NIH3T3 and in the experiment with HT-29 was > 30 µM in each case.
With `CC(=O)[C@@H]1CC[C@]2(N)CC[C@]3(C)[C@H](CC[C@@H]4[C@@]5(C)CC[C@H](O)C(C)(C)[C@@H]5CC[C@]43C)[C@@H]12`, the EC50 was > 30 µM in the experiment with 518A2; > 30 µM in the experiment with A2780; > 30 µM in the experiment on MCF7; > 30 µM in the experiment with A549; 27.5 µM with NIH3T3; 18.7 µM in the experiment on HT-29.
Regarding `CC(=O)[C@@H]1CC[C@]2(C(=O)NCCN)CC[C@]3(C)[C@H](CC[C@@H]4[C@@]5(C)CC[C@H](O)C(C)(C)[C@@H]5CC[C@]43C)[C@@H]12`, the 50% effective concentration (EC50) in the experiment with 518A2 turned out to be 2.5 µM; with A2780, 2.5 µM; in the experiment on MCF7 it was 2.4 µM; in the experiment on A549, 2.6 µM; with NIH3T3 it was 2.5 µM; with HT-29, 2.3 µM.
Consider `CC(=O)O[C@H]1CC[C@]2(C)[C@H]3CC[C@@H]4[C@H]5[C@H](/C(C)=N/O)CC[C@]5(C(=O)OCc5ccccc5)CC[C@@]4(C)[C@]3(C)CC[C@H]2C1(C)C`, for which the concentration for a half-maximal effect (EC50) came to 9 µM in the experiment with 518A2; 6.1 µM in the experiment on A2780; 6.8 µM in the experiment on MCF7; 7.9 µM in the experiment on A549; 6.1 µM in the experiment with NIH3T3; 12.3 µM with HT-29.
With `CC(=O)O[C@H]1CC[C@]2(C)[C@H]3CC[C@@H]4[C@H]5[C@H]([C@H](C)N)CC[C@]5(C(=O)OCc5ccccc5)CC[C@@]4(C)[C@]3(C)CC[C@H]2C1(C)C`, the concentration for a half-maximal effect (EC50) in the experiment with 518A2 came out at 2.5 µM; with A2780, 2.3 µM; in the experiment with MCF7 it was 1.3 µM; with A549 it was 3.3 µM; with NIH3T3, 2 µM; with HT-29, 1.3 µM.
Consider `CCC(=O)O/N=C(\C)[C@@H]1CC[C@]2(C(=O)OC)CC[C@]3(C)[C@H](CC[C@@H]4[C@@]5(C)CC[C@H](OC(C)=O)C(C)(C)[C@@H]5CC[C@]43C)[C@@H]12`, for which the half-maximal effective concentration (EC50) in the experiment with 518A2 stood at 17.9 µM; in the experiment with MCF7, 13.4 µM; in the experiment on A549, 13.2 µM; with NIH3T3, 15.3 µM; in the experiment with HT-29, 28.7 µM.
In the case of `CNC(=O)[C@@H]1CC[C@]2(C(=O)OC)CC[C@]3(C)[C@H](CC[C@@H]4[C@@]5(C)CC[C@H](OC(C)=O)C(C)(C)[C@@H]5CC[C@]43C)[C@@H]12`, the EC50 in the experiment on A2780 is 11.2 µM; in the experiment with MCF7, 13.9 µM; with A549 it was > 30 µM; with NIH3T3 it was > 30 µM; in the experiment with HT-29 it was > 30 µM.
As to `CC(=O)[C@@H]1CC[C@]2(C(=O)NCCN(C)C)CC[C@]3(C)[C@H](CC[C@@H]4[C@@]5(C)CC[C@H](O)C(C)(C)[C@@H]5CC[C@]43C)[C@@H]12`, the EC50 with 518A2 is 3.6 µM; in the experiment with A2780, 4 µM; in the experiment with MCF7, 3.2 µM; in the experiment on A549, 5.1 µM; with NIH3T3, 3.5 µM; in the experiment on HT-29 it was 3.9 µM.
For `COC(=O)[C@]12CC[C@@H](/C(C)=N\O)[C@@H]1[C@H]1CC[C@@H]3[C@@]4(C)CC[C@H](OC(C)=O)C(C)(C)[C@@H]4CC[C@@]3(C)[C@]1(C)CC2`, the EC50 with 518A2 came out at 9.7 µM; with A2780, 12.9 µM; in the experiment on MCF7, 12.1 µM; in the experiment on A549, 8.8 µM; with NIH3T3, 12.3 µM; in the experiment with HT-29, 13 µM.
For the compound `CC(=O)O[C@H]1CC[C@]2(C)[C@H]3CC[C@@H]4[C@H]5[C@H](C(C)=O)CC[C@]5(N=C=O)CC[C@@]4(C)[C@]3(C)CC[C@H]2C1(C)C`, the EC50 with A2780, in the experiment on MCF7, with NIH3T3 and in the experiment with HT-29 was > 30 µM throughout.
On to `CC(=O)[C@@H]1CC[C@]2(C(=O)O)CC[C@]3(C)[C@H](CC[C@@H]4[C@@]5(C)CC[C@H](O)C(C)(C)[C@@H]5CC[C@]43C)[C@@H]12` [PLATANIC ACID], for which the concentration giving a half-maximal response (EC50) with 518A2 was 44.8 µM; in the experiment on A2780, 37 µM; with MCF7, 34.2 µM; in the experiment with A549, 47.3 µM; in the experiment with NIH3T3, 35.4 µM; in the experiment with HT-29 it was 36.2 µM.
Consider `CNC(=O)[C@@H]1CC[C@]2(C(=O)OC)CC[C@]3(C)[C@H](CC[C@@H]4[C@@]5(C)CC[C@H](O)C(C)(C)[C@@H]5CC[C@]43C)[C@@H]12`, for which the EC50 with A2780, in the experiment on MCF7, with A549, in the experiment with NIH3T3 and in the experiment with HT-29 was > 30 µM in each case.
On to `COC(=O)[C@]12CC[C@@H]([C@@H](C)NC(C)=O)[C@@H]1[C@H]1CC[C@@H]3[C@@]4(C)CC[C@H](OC(C)=O)C(C)(C)[C@@H]4CC[C@@]3(C)[C@]1(C)CC2`, for which the half-maximal effective concentration (EC50) in the experiment on 518A2 is 27 µM; with A2780 it was 27.3 µM; in the experiment on MCF7, 21.4 µM; with A549, 22.9 µM; with NIH3T3, 16 µM; in the experiment with HT-29, 27.6 µM.
On to `CC(=O)[C@@H]1CC[C@]2(C(=O)OCc3ccccc3)CC[C@]3(C)[C@H](CC[C@@H]4[C@@]5(C)CC[C@H](O)C(C)(C)[C@@H]5CC[C@]43C)[C@@H]12`, for which the EC50 in the experiment with A2780 was found to be 15.8 µM; with MCF7 it was 9 µM; in the experiment on A549 it was 15.9 µM; with NIH3T3 it was 18.1 µM; with HT-29 it was 10.1 µM.
Turning to `COC(=O)[C@]12CC[C@@H](/C(C)=N/OC(C)=O)[C@@H]1[C@H]1CC[C@@H]3[C@@]4(C)CC[C@H](OC(C)=O)C(C)(C)[C@@H]4CC[C@@]3(C)[C@]1(C)CC2`, the 50% effective concentration (EC50) with 518A2 amounted to 16.5 µM; in the experiment with MCF7 it was 13.1 µM; in the experiment on A549, 13.5 µM; with NIH3T3, 15 µM; with HT-29, 23.8 µM.
For the compound `CC(=O)O[C@H]1CC[C@]2(C)[C@H]3CC[C@@H]4[C@H]5[C@H](C(C)=O)CC[C@]5(C(=O)OCc5ccccc5)CC[C@@]4(C)[C@]3(C)CC[C@H]2C1(C)C`, the EC50 in the experiment with A2780, with MCF7, in the experiment with NIH3T3 and in the experiment with HT-29 was > 30 µM each time.
As for `COC(=O)[C@]12CC[C@@H](C(C)=O)[C@@H]1[C@H]1CC[C@@H]3[C@@]4(C)CC[C@H](O)C(C)(C)[C@@H]4CC[C@@]3(C)[C@]1(C)CC2`, the EC50 in the experiment with A2780, in the experiment on MCF7, with A549, with NIH3T3 and in the experiment on HT-29 was > 30 µM throughout.
`COC(=O)[C@]12CC[C@@H](NC(C)=O)[C@@H]1[C@H]1CC[C@@H]3[C@@]4(C)CC[C@H](OC(C)=O)C(C)(C)[C@@H]4CC[C@@]3(C)[C@]1(C)CC2`: the 50% effective concentration (EC50) in the experiment with A2780 is 22.1 µM; in the experiment with MCF7 it was 10 µM; with A549, 27.7 µM; in the experiment with NIH3T3, 24.1 µM; with HT-29, > 30 µM.
For `CC(=O)[C@@H]1CC[C@]2(C(=O)OCc3ccccc3)CC[C@]3(C)[C@H](CC[C@@H]4[C@@]5(C)CC[C@H](N)C(C)(C)[C@@H]5CC[C@]43C)[C@@H]12`, the EC50 is 1.9 µM in the experiment with 518A2; 2.2 µM with A2780; 1.8 µM in the experiment with MCF7; 2.1 µM in the experiment with A549; 2.3 µM with NIH3T3; 1.5 µM in the experiment with HT-29.
In the case of `COC(=O)[C@]12CC[C@@H](C(C)=O)[C@@H]1[C@H]1CC[C@@H]3[C@@]4(C)CC[C@H](OC(C)=O)C(C)(C)[C@@H]4CC[C@@]3(C)[C@]1(C)CC2`, the EC50 in the experiment on A2780, in the experiment with MCF7, in the experiment with NIH3T3 and in the experiment with HT-29 was > 30 µM throughout.
Consider `CN[C@@H]1C[C@H]2O[C@@](C)([C@@H]1OC)n1c3ccccc3c3c4c(c5c6ccccc6n2c5c31)C(=O)NC4` [STAUROSPORINE], for which the concentration giving a half-maximal response (EC50) in the experiment with A2780 is 0.12 µM; with A549, 0.04 µM; in the experiment on NIH3T3 it was 0.008 µM; with HT-29, 0.15 µM.
As to `COC(=O)[C@]12CC[C@@H](NC(C)=O)[C@@H]1[C@H]1CC[C@@H]3[C@@]4(C)CC[C@H](O)C(C)(C)[C@@H]4CC[C@@]3(C)[C@]1(C)CC2`, the EC50 with A2780, in the experiment with MCF7, with A549, with NIH3T3 and in the experiment on HT-29 was > 30 µM throughout.

A word on the EC50: it is the midpoint of the concentration-response curve.
